Measurements reported in US20020016351A1, “New crystals of celecoxib” (priority 2000, published 2002).

Assays:
[1] = tap density of the crystals; type: physicochemical; conditions: typical and characteristic density of the celecoxib crystals
Excerpt: (§1) One of the main disadvantages of the needle-like crystals of Form II mentioned in WO 00/32189 is their low bulk density. It was found, that the crystals of the invention's Form I are distinctly denser in comparison to the crystals of Form II prepared according to the methods as given in International Applications WO 95/15316 and WO 96/37476. The following densities are typical and characteristic for the crystals of Form I and II, respectively: […]

[2] = bulk density of the crystals; type: physicochemical; conditions: typical and characteristic density of the celecoxib crystals
Excerpt: as §1

Row | tap density [1] | bulk density [2] | Compound
1 | about 0.180 g/ml | about 0.130 g/ml | Cc1ccc(-c2cc(C(F)(F)F)nn2-c2ccc(S(N)(=O)=O)cc2)cc1 [Form II, 4-[5-(4-methylphenyl)-3-(trifluoromethyl)-1H-pyrazol-1-yl]benzenesulfonamide]
2 | ≧about 0.360 g/ml | ≧about 0.270 g/ml | Cc1ccc(-c2cc(C(F)(F)F)nn2-c2ccc(S(N)(=O)=O)cc2)cc1 [Form I, 4-[5-(4-methylphenyl)-3-(trifluoromethyl)-1H-pyrazol-1-yl]benzenesulfonamide]
